Experimental findings from patent US20260327204A1, “DEGRADERS OF CYCLIN-DEPENDENT KINASE 12/13, COMPOSITIONS, AND USES THEREOF” (ZHEJIANG UNIVERSITY, priority 2023, published 2026) are described below.

Where two headings read alike, the source gives them in different places.

The target in assay [1] is CDK13 (Homo sapiens, UniProt Q14004). Put plainly: Western blot degradation of CDK13 (Example 3). In kind it is cell-based. Also noted: degradation of CDK12/13 protein in leukemia cells KASUMI-1, MV4-11, and Jurkat; endogenous in cells. For orientation: A western blot detects proteins with antibodies after separation by electrophoresis.
For assay [2], the target named is CDK12 (Homo sapiens, UniProt Q9NYV4). Briefly: Western blot degradation of CDK12 (Example 3). The format is cell-based. More on the design: degradation of CDK12/13 protein in leukemia cells KASUMI-1, MV4-11, and Jurkat; endogenous in cells.
Where [3] appears, read: DC50 classes; cell line not given; read-out: CDK13 degradation Activity.
Where [4] appears, read: DC50 classes; cell line not given; read-out: CDK12 degradation Activity.

Chain of CDK13 (Q14004 whole entry): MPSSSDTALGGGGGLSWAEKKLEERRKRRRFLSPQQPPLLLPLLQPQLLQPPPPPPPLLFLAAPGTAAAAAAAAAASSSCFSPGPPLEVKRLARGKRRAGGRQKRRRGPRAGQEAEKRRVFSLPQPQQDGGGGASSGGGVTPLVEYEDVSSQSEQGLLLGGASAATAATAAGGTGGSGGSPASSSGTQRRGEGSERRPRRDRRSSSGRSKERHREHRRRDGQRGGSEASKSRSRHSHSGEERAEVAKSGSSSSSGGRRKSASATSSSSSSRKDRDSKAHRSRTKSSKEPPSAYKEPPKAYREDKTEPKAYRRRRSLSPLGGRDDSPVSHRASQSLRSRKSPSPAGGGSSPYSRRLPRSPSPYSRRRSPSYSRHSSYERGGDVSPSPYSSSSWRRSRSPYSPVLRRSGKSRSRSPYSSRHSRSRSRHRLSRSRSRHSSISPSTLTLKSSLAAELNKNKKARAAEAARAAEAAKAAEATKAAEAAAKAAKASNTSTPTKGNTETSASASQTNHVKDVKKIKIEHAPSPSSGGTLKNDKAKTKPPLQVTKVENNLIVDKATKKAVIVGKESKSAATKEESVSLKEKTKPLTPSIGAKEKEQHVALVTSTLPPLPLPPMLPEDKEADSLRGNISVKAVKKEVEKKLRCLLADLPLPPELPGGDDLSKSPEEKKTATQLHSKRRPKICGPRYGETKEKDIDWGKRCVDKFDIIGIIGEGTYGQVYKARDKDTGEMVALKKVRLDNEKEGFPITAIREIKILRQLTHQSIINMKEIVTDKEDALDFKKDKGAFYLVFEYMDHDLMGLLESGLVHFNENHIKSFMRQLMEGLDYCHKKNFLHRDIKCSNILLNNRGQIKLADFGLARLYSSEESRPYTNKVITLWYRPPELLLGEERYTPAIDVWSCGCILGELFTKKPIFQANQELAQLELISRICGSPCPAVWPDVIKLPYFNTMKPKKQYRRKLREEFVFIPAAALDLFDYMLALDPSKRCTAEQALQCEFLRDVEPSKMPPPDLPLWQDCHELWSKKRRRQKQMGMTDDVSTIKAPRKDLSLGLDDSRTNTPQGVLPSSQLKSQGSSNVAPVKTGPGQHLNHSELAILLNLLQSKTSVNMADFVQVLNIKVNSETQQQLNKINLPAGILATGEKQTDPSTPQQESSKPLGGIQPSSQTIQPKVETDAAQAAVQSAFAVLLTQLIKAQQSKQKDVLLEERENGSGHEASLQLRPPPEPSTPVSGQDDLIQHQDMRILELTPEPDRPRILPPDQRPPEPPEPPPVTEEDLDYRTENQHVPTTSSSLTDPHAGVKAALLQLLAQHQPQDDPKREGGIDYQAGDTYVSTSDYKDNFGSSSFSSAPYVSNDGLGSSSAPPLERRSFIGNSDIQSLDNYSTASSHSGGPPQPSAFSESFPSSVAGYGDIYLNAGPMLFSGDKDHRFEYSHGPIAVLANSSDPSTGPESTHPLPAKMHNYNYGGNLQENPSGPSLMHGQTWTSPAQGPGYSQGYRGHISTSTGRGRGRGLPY
Chain of CDK13 (O75909 whole entry partner): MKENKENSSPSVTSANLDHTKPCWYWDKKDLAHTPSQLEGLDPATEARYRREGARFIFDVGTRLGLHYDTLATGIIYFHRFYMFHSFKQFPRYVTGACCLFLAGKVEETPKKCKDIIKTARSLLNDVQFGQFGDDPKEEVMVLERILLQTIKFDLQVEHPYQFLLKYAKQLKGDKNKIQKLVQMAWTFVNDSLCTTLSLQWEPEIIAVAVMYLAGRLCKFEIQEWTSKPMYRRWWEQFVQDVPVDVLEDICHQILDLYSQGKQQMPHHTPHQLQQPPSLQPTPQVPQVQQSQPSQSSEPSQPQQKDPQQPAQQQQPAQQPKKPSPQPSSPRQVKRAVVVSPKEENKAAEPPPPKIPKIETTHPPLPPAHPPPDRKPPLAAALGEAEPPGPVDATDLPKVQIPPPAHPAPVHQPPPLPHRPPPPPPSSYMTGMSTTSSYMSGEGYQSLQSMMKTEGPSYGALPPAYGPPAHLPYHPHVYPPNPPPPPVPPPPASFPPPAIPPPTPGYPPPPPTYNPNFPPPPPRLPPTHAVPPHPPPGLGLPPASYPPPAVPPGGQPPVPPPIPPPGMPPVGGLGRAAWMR
Chain of CDK12 (Q9NYV4 whole entry): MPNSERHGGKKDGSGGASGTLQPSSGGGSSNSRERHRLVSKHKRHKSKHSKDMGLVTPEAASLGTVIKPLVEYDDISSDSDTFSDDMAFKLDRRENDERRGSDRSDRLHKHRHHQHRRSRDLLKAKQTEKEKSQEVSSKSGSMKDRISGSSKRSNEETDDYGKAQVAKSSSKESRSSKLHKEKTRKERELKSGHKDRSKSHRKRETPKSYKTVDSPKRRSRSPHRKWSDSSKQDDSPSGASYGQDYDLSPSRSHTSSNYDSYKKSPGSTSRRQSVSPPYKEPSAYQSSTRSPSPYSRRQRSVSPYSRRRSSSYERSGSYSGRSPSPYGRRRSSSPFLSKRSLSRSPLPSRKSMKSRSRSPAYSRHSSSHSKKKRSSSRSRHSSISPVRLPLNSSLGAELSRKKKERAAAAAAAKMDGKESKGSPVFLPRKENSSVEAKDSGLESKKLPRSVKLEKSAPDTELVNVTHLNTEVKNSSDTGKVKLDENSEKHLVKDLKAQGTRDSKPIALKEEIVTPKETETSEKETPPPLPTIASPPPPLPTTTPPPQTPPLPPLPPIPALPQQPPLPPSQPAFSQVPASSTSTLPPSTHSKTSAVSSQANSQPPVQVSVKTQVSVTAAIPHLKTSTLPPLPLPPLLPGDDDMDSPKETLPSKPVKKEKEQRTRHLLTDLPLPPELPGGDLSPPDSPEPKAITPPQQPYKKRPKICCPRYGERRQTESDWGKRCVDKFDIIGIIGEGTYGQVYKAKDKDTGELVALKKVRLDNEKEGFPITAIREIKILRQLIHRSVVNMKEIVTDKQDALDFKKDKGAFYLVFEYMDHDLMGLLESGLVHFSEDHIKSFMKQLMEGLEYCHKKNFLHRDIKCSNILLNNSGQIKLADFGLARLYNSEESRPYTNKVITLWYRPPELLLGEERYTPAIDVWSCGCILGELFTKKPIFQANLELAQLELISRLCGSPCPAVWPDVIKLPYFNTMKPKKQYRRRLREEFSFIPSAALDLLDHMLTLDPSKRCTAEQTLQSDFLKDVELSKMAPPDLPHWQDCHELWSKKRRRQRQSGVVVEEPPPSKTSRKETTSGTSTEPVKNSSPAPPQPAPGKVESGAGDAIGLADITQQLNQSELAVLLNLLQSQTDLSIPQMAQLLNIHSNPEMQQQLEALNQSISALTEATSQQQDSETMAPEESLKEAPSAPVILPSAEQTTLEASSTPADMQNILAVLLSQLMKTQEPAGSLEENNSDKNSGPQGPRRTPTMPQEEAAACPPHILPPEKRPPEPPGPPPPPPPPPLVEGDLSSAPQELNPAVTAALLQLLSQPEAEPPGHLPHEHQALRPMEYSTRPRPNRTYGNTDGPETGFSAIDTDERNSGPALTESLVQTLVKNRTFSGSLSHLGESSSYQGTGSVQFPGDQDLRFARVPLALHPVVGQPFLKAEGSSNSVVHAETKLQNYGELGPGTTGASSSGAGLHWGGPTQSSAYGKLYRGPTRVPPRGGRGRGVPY
Chain of CDK12 (O75909 whole entry partner): as the sequence (O75909 whole entry partner) above

`CC(=O)N(c1ccc(N2CCN(C(=O)CNc3ccc4c(c3)C(=O)N(C3CCC(=O)NC3=O)C4=O)CC2)cc1)[C@H]1CC[C@H](Nc2ncc3ccccc3n2)CC1` (stereo partly drawn) [Formula 101, N-(4-(4-((2-(2,6-dioxopiperidin-3-yl)-1,3-dioxoisoindolin-5-yl)aminoacetyl)piperazin-1-yl)phenyl)-N-((1R,4R)-4-(quinazolin-2-ylamino)cyclohexyl)acetamide]: the DC50 in assay [1] (setting [3]) and in assay [2] (setting [4]) was 1 to 3 µM each time.

Take `CC(=O)N(c1ccc(-c2ccc(N3CCN(Cc4cnn([C@H](C(=O)N5C[C@H](O)C[C@H]5C(=O)N[C@@H](C)c5ccc(-c6scnc6C)cc5)C(C)C)c4)CC3)nc2)cc1)C1CCC(Nc2ncc3ccccc3n2)CC1` (stereo partly drawn) [Formula 151, (2S,4R)-4-hydroxy-1-((S)-3-methyl-2-(4-((4-(5-(4-(N-((1R,4R)-4-(quinazolin-2-ylamino)cyclohexyl)acetamido)phenyl)pyridin-2-yl)piperazin-1-yl)methyl)-1H-pyrazol-1-yl)butanoyl)-N—((S)-1-(4-(4-methylthiazol-5-yl)phenyl)ethyl)pyrrolidine-2-carboxamide]: the values for the DC50 in assay [1] (read-out: CDK13 degradation Activity; DC50 classes; cell line not given) and in assay [2] (read-out: CDK12 degradation Activity; DC50 classes; cell line not given) were 0.1 to 0.5 µM and 0.5 to 1 µM, respectively.

As for `CC(=O)N(c1ccc(-c2ccc(N3CCN(C(=O)N[C@H](C(=O)N4C[C@H](O)CC4C(=O)N[C@@H](C)c4ccc(-c5scnc5C)cc4)C(C)(C)C)CC3)nc2)cc1)[C@H]1CC[C@H](Nc2ncc3ccccc3n2)CC1` (some centres unmarked) [Formula 145], in assay [1] (setting [3]), the DC50 was in the range of 3 to 10 µM. Also, in assay [2] (DC50 classes; cell line not given), the “CDK12 degradation Activity” value is “−”.

Take `CC(=O)N(c1ccc(-c2cnc(O[C@@H]3CCN(c4ccc5c(c4)C(=O)N(C4CCC(=O)NC4=O)C5=O)C3)nc2)cc1)[C@H]1CC[C@H](Nc2ncc3ccccc3n2)CC1` (stereo partly drawn) [Formula 109, N-(4-(2-(((3R)-1-(2-(2,6-dioxopiperidin-3-yl)-1,3-dioxoisoindolin-5-yl)pyrrolidin-3-yl)oxy)pyrimidin-5-yl)phenyl)-N-((1R,4R)-4-(quinazolin-2-ylamino)cyclohexyl)acetamide]: the DC50 in assay [1] (setting [3]) and in assay [2] (setting [4]) was 0.1 to 0.5 µM each time.

In the case of `CC(=O)N(c1ccc(-c2ccc(N3CCC(C(=O)N[C@H](C(=O)N4C[C@H](O)C[C@H]4C(=O)N[C@@H](C)c4ccc(-c5scnc5C)cc4)C(C)(C)C)CC3)nc2)cc1)[C@H]1CC[C@H](Nc2ncc3ccccc3n2)CC1` [Formula 137, N—((S)-1-((2S,4R)-4-hydroxy-2-(((S)-1-(4-(4-methylthiazol-5-yl)phenyl)ethyl)carbamoyl)pyrrolidin-1-yl)-3,3-dimethyl-1-oxobutan-2-yl)-1-(5-(4-(N-((1R,4R)-4-(quinazolin-2-ylamino)cyclohexyl)acetamido)phenyl)pyridin-2-yl)piperidine-4-carboxamide], the DC50 in assay [1] (setting [3]) and in assay [2] (setting [4]) was 3 to 10 µM in each case.

With `CC(=O)N(c1ccc(N2CCN(CC3CN(c4ccc5c(c4)C(=O)N(C4CCC(=O)NC4=O)C5=O)C3)CC2)cc1)[C@H]1CC[C@H](Nc2ncc3ccccc3n2)CC1` (stereo partly drawn) [Formula 127, N-(4-(4-((1-(2-(2,6-dioxopiperidin-3-yl)-1,3-dioxoisoindolin-5-yl)azetidin-3-yl)methyl)piperazin-1-yl)phenyl)-N-((1R,4R)-4-(quinazolin-2-ylamino)cyclohexyl)acetamide], the DC50 in assay [1] (setting [3]) and in assay [2] (setting [4]) was 0.5 to 1 µM in each case.

Turning to `CC(=O)N(c1ccc(-c2ccc(OCC3CCN(CC(=O)N[C@H](C(=O)N4C[C@H](O)C[C@H]4C(=O)N[C@@H](C)c4ccc(-c5scnc5C)cc4)C(C)(C)C)CC3)nc2)cc1)[C@H]1CC[C@H](Nc2ncc3ccccc3n2)CC1` [Formula 133, (2S,4R)-1-((S)-3,3-dimethyl-2-(2-(4-(((5-(4-(N-((1R,4R)-4-(quinazolin-2-ylamino)cyclohexyl)acetamido)phenyl)pyridin-2-yl)oxy)methyl)piperidin-1-yl)acetamido)butanoyl)-4-hydroxy-N—((S)-1-(4-(4-methylthiazol-5-yl)phenyl)ethyl)pyrrolidine-2-carboxamide], the figures for the DC50 in assay [1] (setting [3]) and in assay [2] (setting [4]) were 0.1 to 0.5 µM and 0.5 to 1 µM, respectively.

Turning to `CC(=O)N(c1ccc(-c2cnn(C3CN(c4ccc5c(c4)C(=O)N(C4CCC(=O)NC4=O)C5=O)C3)c2)cc1)[C@H]1CC[C@H](Nc2ncc3ccccc3n2)CC1` (stereo partly drawn) [Formula 113, N-(4-(1-(1-(2-(2,6-dioxopiperidin-3-yl)-1,3-dioxoisoindolin-5-yl)azetidin-3-yl)-1H-pyrazol-4-yl)phenyl)-N-((1R,4R)-4-(quinazolin-2-ylamino)cyclohexyl)acetamide], the DC50 in assay [1] (setting [3]) and in assay [2] (setting [4]) was 3 to 10 µM in each case.

Consider `CC(=O)N(c1ccc(-c2cnc(N3CCN(c4cc5c(cc4F)C(=O)N(C4CCC(=O)NC4=O)C5=O)CC3)nc2)cc1)[C@H]1CC[C@H](Nc2ncc3ccccc3n2)CC1` (stereo partly drawn) [Formula 114, N-(4-(2-(4-(2-(2,6-dioxopiperidin-3-yl)-6-fluoro-1,3-dioxoisoindolin-5-yl)piperazin-1-yl)pyrimidin-5-yl)phenyl)-N-((1R,4R)-4-(quinazolin-2-ylamino)cyclohexyl)acetamide], for which the DC50 in assay [1] (setting [3]) and in assay [2] (setting [4]) was 1 to 3 µM each time.

Turning to `CC(=O)N(c1ccc(-c2cnc(OC3CN(c4ccc5c(c4)C(=O)N(C4CCC(=O)NC4=O)C5=O)C3)nc2)cc1)[C@H]1CC[C@H](Nc2ncc3ccccc3n2)CC1` (stereo partly drawn) [Formula 108, N-(4-(2-((1-(2-(2,6-dioxopiperidin-3-yl)-1,3-dioxoisoindolin-5-yl)azetidin-3-yl)oxy)pyrimidin-5-yl)phenyl)-N-((1R,4R)-4-(quinazolin-2-ylamino)cyclohexyl)acetamide], the DC50 in assay [1] (setting [3]) and in assay [2] (setting [4]) was 0.1 to 0.5 µM throughout.

In the case of `CC(=O)N(c1ccc(N2CCN(c3ccc4c(c3)C(=O)N(C3CCC(=O)NC3=O)C4=O)CC2)cc1)[C@H]1CC[C@H](Nc2ncc3ccccc3n2)CC1` (stereo partly drawn) [Formula 104, N-(4-(4-(2-(2,6-dioxopiperidin-3-yl)-1,3-dioxoisoindolin-5-yl)piperazin-1-yl)phenyl)-N-((1R,4R)-4-(quinazolin-2-ylamino)cyclohexyl)acetamide], the DC50 in assay [1] (setting [3]) and in assay [2] (setting [4]) was 3 to 10 µM in each case.

Consider `CC(=O)N(c1ccc(-c2ccn(CC3CN(c4ccc5c(c4)C(=O)N(C4CCC(=O)NC4=O)C5=O)C3)c(=O)c2)cc1)[C@H]1CC[C@H](Nc2ncc3ccccc3n2)CC1` (stereo partly drawn) [Formula 112, N-(4-(1-((1-(2-(2,6-dioxopiperidin-3-yl)-1,3-dioxoisoindolin-5-yl)azetidin-3-yl)methyl)-2-oxo-1,2-dihydropyridin-4-yl)phenyl)-N-((1R,4R)-4-(quinazolin-2-ylamino)cyclohexyl)acetamide], for which the DC50 in assay [1] (setting [3]) and in assay [2] (setting [4]) was 0.1 to 0.5 µM throughout.

`CC(=O)N(c1ccc(-c2cnc(N3CCN(C(=O)N[C@H](C(=O)N4C[C@H](O)C[C@H]4C(=O)N[C@@H](C)c4ccc(-c5scnc5C)cc4)C(C)(C)C)CC3)nc2)cc1)[C@H]1CC[C@H](Nc2ncc3ccccc3n2)CC1` [Formula 146, N—((S)-1-((2S,4R)-4-hydroxy-2-(((S)-1-(4-(4-methylthiazol-5-yl)phenyl)ethyl)carbamoyl)pyrrolidin-1-yl)-3,3-dimethyl-1-oxobutan-2-yl)-4-(5-(4-(N-((1R,4R)-4-(quinazolin-2-ylamino)cyclohexyl)acetamido)phenyl)pyrimidin-2-yl)piperazine-1-carboxamide]: the DC50 in assay [1] (setting [3]) and in assay [2] (setting [4]) was 3 to 10 µM throughout.
